This note sets out measurements from PubChem BioAssay (NCI).

“And” between values parts separate entries of the source, which are not always exact repeats. Identical values can stand only once.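 Results reflect a 48-hour exposure of cells in 96-well plates to compound at five concentrations. At the GI50, growth is halved. Definition used: TGI = concentration required for complete inhibition of growth.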

What all share (experiment): inhibition of tumour cell growth, NCI panel, 48 h
In assay [1] the test system is MCF7 breast.
The subject of assay [2] is KM12 colon.
For assay [3], the system named is SF-268 CNS.
The subject of assay [4] is XF 498 CNS.
In assay [5] the test system is LXFL 529 NSCLC.
Assay [6] deals with NCI-H460 lung.
Assay [7] concerns SNB-19 CNS.
Assay [8] relates to SNB-75 CNS.

As for `S=P(N1CC1)(N1CC1)N1CC1`, the TGI in assay [1] was 311 µM and 550 µM; in assay [3], 60.6 µM and 536 µM and 476 µM; in assay [4], 35.8 µM and 230 µM; in assay [5], 40 µM and 314 µM; in assay [6] it was 31.7 µM and 195 µM; in assay [7], > 78.4 µM and 719 µM and 787 µM. Further, the TGI in assay [8] was 57.7 µM and 403 µM and 498 µM. In addition, the GI50 in assay [2] is 27 µM; in assay [3], 8.67 µM and 24.8 µM; in assay [4], 13.2 µM; in assay [5] it was 21.9 µM; in assay [6] it was 0.588 µM; in assay [7] it was 18.5 µM and 180 µM. The GI50 in assay [8] is 20.4 µM and 186 µM.

In the case of `CN(C)CC/[N+]([O-])=C(/c1ccccc1)C12CC3CC(CC(C3)C1)C2`, the TGI in assay [2] was 33.3 µM; in assay [3], 35.9 µM; in assay [4], 25.9 µM; in assay [5], 39.1 µM; in assay [6], 35.1 µM; in assay [7] it was 37.5 µM. For the same molecule, the TGI in assay [8] amounted to 24.7 µM.

For the molecule `CC(C)(c1ccccc1)c1ccc(OC#N)cc1`, the TGI is greater than 100 µM in assay [2]; greater than 100 µM in assay [3]; greater than 100 µM in assay [4]; greater than 100 µM in assay [5]; greater than 59.1 µM in assay [6]; greater than 100 µM in assay [7]. Moreover, the TGI in assay [8] was greater than 74.4 µM.

Regarding `COc1ccccc1NC(=O)CC(=O)N/N=C/c1ccc(N(CCC#N)S(=O)(=O)c2ccccc2)cc1`, the TGI in assay [2], in assay [3], in assay [4], in assay [5], in assay [6] and in assay [7] was greater than 100 µM throughout. The molecule also returned a TGI in assay [8] greater than 100 µM.

In the case of `N#CC1CCCCCCCCCCC(=O)N(CCCl)C1=O` (stereo not given), the TGI in assay [2], in assay [3], in assay [4], in assay [5], in assay [6] and in assay [7] was greater than 100 µM throughout. For the same molecule, in assay [8], the TGI is greater than 100 µM.

As to `Cc1cccc(NC(=O)c2cccc([N+](=O)[O-])c2O)c1C`, the TGI is 81.2 µM in assay [1]; greater than 69.4 µM in assay [2]; greater than 100 µM in assay [3]; 61 µM in assay [4]; greater than 100 µM in assay [5]; greater than 69.6 µM in assay [6]. Further, the TGI is greater than 100 µM in assay [7] and 81.1 µM in assay [8].

As for `CC(=O)OCC1OC(n2c(-c3ccc(C)cc3)cc(-c3ccccc3)c(C#N)c2=O)C(OC(C)=O)C(OC(C)=O)C1OC(C)=O` (stereo not given), the TGI in assay [2], in assay [3], in assay [4], in assay [5], in assay [6] and in assay [7] was greater than 100 µM in each case. In addition, the TGI in assay [8] is greater than 100 µM.

Consider `Cc1cc(C)cc(NC(N)=S)c1`, for which the TGI in assay [2], in assay [3], in assay [4], in assay [5], in assay [6] and in assay [7] was greater than 100 µM each time. Further, in assay [8], the TGI was greater than 100 µM.

Regarding `CC(=O)C1=C(O)CC2CC3c4[nH]c5ccccc5c4CCN3CC2C1` (stereo not given), the TGI in assay [2], in assay [3], in assay [4], in assay [5], in assay [6] and in assay [7] was greater than 100 µM in each case. Moreover, the TGI in assay [8] was greater than 100 µM.

For the molecule `CCCSS[C@H]1NC(=O)[C@H]1NC(=O)COc1ccccc1`, the TGI was 31.6 µM in assay [2]; 40.5 µM in assay [3]; 33.8 µM in assay [4]; 18.3 µM in assay [5]; 31.4 µM in assay [6]; greater than 100 µM in assay [7]. The molecule further displayed a TGI in assay [8] of 44 µM.

With `C=CCC1C(=O)CC2(C)CC(=O)C(CC=C)C12C` (stereo not given), the TGI in assay [2], in assay [3], in assay [4], in assay [5], in assay [6] and in assay [7] was greater than 100 µM each time. The TGI in assay [8] is greater than 100 µM.
